# Assay results as given in patent publication US20060281719A1, “Oestrogen-17-sulphamates as inhibitors of steroid sulphatase” (priority 2000, published 2006).
# Values joined by “and” are separate entries in the source; they are usually repeats but may differ in a detail not shown here. Equal values may be shown once. Read-outs that look alike come from different tables or passages of the source.
# Experiments:
# [1] = Plate assay % inhibition; type: cell-based; settings: -ve % means stimulation
# [2] = biological target: T1, oestrone sulphatase (E1-STS) (Homo sapiens, UniProt P08842); experiment: Inhibition of steroid sulphatase activity in placental microsomes; type: biochemical; parameters: from tissue; host or cells: human term placenta (microsomal preparation); settings: for inhibition at 0.01 µM / inhibition at 1 µM: read-out: Placental Microcsomes % inhibition
# T1 sequence (P08842 22-583): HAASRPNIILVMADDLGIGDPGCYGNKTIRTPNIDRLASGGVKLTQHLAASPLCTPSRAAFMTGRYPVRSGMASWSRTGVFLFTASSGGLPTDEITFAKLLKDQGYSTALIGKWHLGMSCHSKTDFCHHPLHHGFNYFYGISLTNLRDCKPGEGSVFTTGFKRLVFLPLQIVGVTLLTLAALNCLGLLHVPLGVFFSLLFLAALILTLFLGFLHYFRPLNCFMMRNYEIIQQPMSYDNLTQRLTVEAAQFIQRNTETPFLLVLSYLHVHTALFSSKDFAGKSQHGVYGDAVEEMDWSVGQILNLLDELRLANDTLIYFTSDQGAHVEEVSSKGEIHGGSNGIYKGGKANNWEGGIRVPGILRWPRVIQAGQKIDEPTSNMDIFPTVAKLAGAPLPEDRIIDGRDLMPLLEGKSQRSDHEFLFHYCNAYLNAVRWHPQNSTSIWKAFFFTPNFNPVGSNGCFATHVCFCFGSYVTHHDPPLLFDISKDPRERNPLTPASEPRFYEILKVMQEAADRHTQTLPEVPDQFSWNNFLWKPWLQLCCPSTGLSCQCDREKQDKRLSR
# Experimental: Inhibition of Steroid Sulphatase Activity in Placental Microsomes
# Sulphatase-positive human placenta from normal term pregnancies are thoroughly minced with scissors and washed once with cold phosphate buffer (pH 7.4, 50 mM) then re-suspended in cold phosphate buffer (5 ml/g tissue). Homogenisation is accomplished with an Ultra-Turrax homogeniser, using three 10 second bursts separated by 2 minute cooling periods in ice. Nuclei and cell debris are removed by centrifuging (4° C.) at 2000 g for 30 minutes and portions (2 ml) of the supernatant are stored at 20° C.
# Incubations (1 ml) are carried out using a protein concentration of 100 mg/ml, substrate concentration of 20 mM [6,7-3H]oestrone-3-sulphate (specific activity 60 Ci/mmol from New England Nuclear, Boston, Mass., U.S.A.) and an incubation time of 20 minutes at 37° C. If necessary eight concentrations of compounds are employed: 0 (i.e. control); 0.05 mM; 0.1 mM; 0.2 mM; 0.4 mM; 0.6 mM; 0.8 mM; 1.0 mM. After incubation each sample is cooled and the medium (1 ml) was pipetted into separate tubes containing [14C]oestrone (7×10^3 dpm) (specific activity 97 Ci/mmol from Amersham International Radiochemical Centre, Amersham, U.K.). The mixture is shaken thoroughly for 30 seconds with toluene (5 ml). […] A portion (2 ml) of the organic phase was removed, evaporated and the 3H and 14C content of the residue determined by scintillation spectrometry. The mass of oestrone-3-sulphate hydrolysed is calculated from the 3H counts obtained (corrected for the volumes of the medium and organic phase used, and for recovery of [14C]oestrone added) and the specific activity of the substrate.
# [3] = system: MCF-7 breast cancer cells; experiment: Growth inhibition of MCF-7 breast cancer cells; type: cell-based, human
# [4] = biological target: T1, oestrone sulphatase (E1-STS); experiment: Inhibition of steroid sulphatase (E1-STS) activity in intact MCF-7 breast cancer cells; type: cell-based
smiles,measurement,setting,value
"CCCCCN(CCCCC)S(=O)(=O)O[C@@H]1CC[C@H]2[C@@H]3CCc4cc(OS(N)(=O)=O)ccc4[C@H]3CC[C@]12C [BLE00083B, 3-O-Sulfamoyl-estra-1,3,5(10)-trien-17α-O—(N,N-dipentyl)sulfamate]",Plate assay % inhibition,[1]; 0.1 μM,8%
same,Plate assay % inhibition,[1]; 10 μM,24%
"CN(C)S(=O)(=O)O[C@H]1CCC2C3CCc4cc(O)ccc4C3CC[C@@]21C (stereo partly drawn) [BLE99067, 3-Hydroxyestra-1,3,5(10)-trien-17β-O—(N,N-dimethyl)sulfamate]",inhibition at 0.1 µM,[1]; 0.1 μM,-5%
same,inhibition at 1 µM,[1]; 1 μM,-1%
same,inhibition at 10 µM,[1]; 10 μM,50%
same,melting point,,170 to 173 °C
same,inhibition at 0.01 µM,"[2]; 10 nM, -ve % means stimulation",-0.1%
same,inhibition at 1 µM,"[2]; 1 μM, -ve % means stimulation",8.7%
"CCCCCN(CCCCC)S(=O)(=O)O[C@@H]1CC[C@H]2[C@@H]3CCc4cc(O)ccc4[C@H]3CC[C@]12C [BLE00082, 3-Hydroxyestra-1,3,5(10)-trien-17α-O—(N,N-dipentyl)sulfamate]",Plate assay % inhibition,[1]; 1 μM,24%
COc1cc2c(cc1O)CCC1C2CC[C@@]2(C)C1CC[C@@]2(O)Cc1ccccc1 (stereo partly shown) [BLE01014],Plate assay % inhibition,[1]; 0.1 μM,−14%
same,Plate assay % inhibition,[1]; 1 μM,−14%
C[C@]12CC[C@@H]3c4ccc(OS(N)(=O)=O)cc4CC[C@H]3[C@@H]1CC[C@@H]2O [BLE00084],Plate assay % inhibition,[1]; 0.1 μM,4%
same,Plate assay % inhibition,[1]; 10 μM,23%
COc1cc2c(cc1O)CCC1C2CC[C@@]2(C)C1CC[C@@]2(O)Cc1ccc(C(C)(C)C)cc1 (stereo partly shown) [BLE01008],Plate assay % inhibition,[1]; 0.1 μM,−12%
same,Plate assay % inhibition,[1]; 1 μM,−15%
COc1cc2c(cc1OS(N)(=O)=O)CCC1C2CCC2(C)C1CCC2(O)Cc1ccccc1 (stereo not shown) [BLE01018],inhibition at 0.1 µM,[1]; 0.1 μM,-19%
same,inhibition at 1 µM,[1]; 1 μM,-12%
"CCCCCN(CCCCC)S(=O)(=O)O[C@H]1CCC2C3CCc4cc(O)ccc4C3CC[C@@]21C (stereo partly drawn) [BLE99073, 3-Hydroxyestra-1,3,5(10)-trien-17β-O—(N,N-dipentyl)sulfamate]",melting point,,93 to 96 °C
same,inhibition at 0.01 µM,[2],1.2%
same,inhibition at 1 µM,[2],-11.8%
"C[C@]12CCC3c4ccc(OS(N)(=O)=O)cc4CCC3C1CC[C@H]2OS(=O)(=O)N(Cc1ccccc1)Cc1ccccc1 (stereo partly drawn) [BLE99068, 3-O-Sulfamoyl-estra-1,3,5(10)-trien-17α-O—(N,N-dibenzyl)sulfamate]",inhibition at 0.1 µM,[1]; 0.1 μM,-18%
same,inhibition at 1 µM,[1]; 1 μM,-1%
same,inhibition at 10 µM,[1]; 10 μM,19%
same,inhibition at 0.01 µM,"[2]; 10 nM, -ve % means stimulation",4.9%
same,inhibition at 1 µM,"[2]; 1 μM, -ve % means stimulation",58.2%
"CN(C)S(=O)(=O)O[C@H]1CC[C@H]2[C@@H]3CCc4cc(OS(N)(=O)=O)ccc4[C@H]3CC[C@]12C [BLE99069, 3-O-Sulfamoyl-estra-1,3,5(10)-trien-17β-O—(N,N-dimethyl)sulfamate]",Plate assay % inhibition,[1]; 0.1 μM,3%
same,Plate assay % inhibition,[1]; 1 μM,10%
same,Placental Microcsomes % inhibition,"[2]; 10 nM, -ve % means stimulation",30.3^1%
same,Placental Microcsomes % inhibition,"[2]; 1 μM, -ve % means stimulation",96.3^1%
"C[C@]12CCC3c4ccc(OS(N)(=O)=O)cc4CCC3C1CC[C@@H]2OS(=O)(=O)N(Cc1ccccc1)Cc1ccccc1 (stereo partly drawn) [BLE99063, 3-O-Sulfamoyl-estra-1,3,5(10)-trien-17β-O—(N,N-dibenzyl)sulfamate]",melting point,,60 to 64 °C and 58 to 62 °C
same,inhibition at 0.01 µM,"[2]; 10 nM, -ve % means stimulation",-1.9%
same,inhibition at 1 µM,"[2]; 1 μM, -ve % means stimulation",38.2%
C[C@]12CCC3c4ccc(OCc5ccccc5)cc4CCC3C1CC[C@H]2OS(N)(=O)=O (stereo partly shown),melting point,,91 to 93 °C
"NS(=O)(=O)Oc1ccc2c3c(oc2c1)C(=O)c1ccccc1C3=O [Compound 13, Benzo[b]naphtho[2,3-d]furan-6,11-dione 3-O-sulphamate]",effect on MCF-7 cells (toxicity),[3],kills the MCF-7 cells
same,percentage growth inhibition of MCF-7 breast cancer cells,[3]; 0.1 μM,inactive
same,percentage growth inhibition of MCF-7 breast cancer cells,[3]; 1 μM,41%
same,percentage growth inhibition of MCF-7 breast cancer cells,[3]; 10 μM,44%
same,% Inhibition of E1-STS activity in MCF-7 cells,[4]; 0.1 μM,46.6 ± 4.5%
same,% Inhibition of E1-STS activity in MCF-7 cells,[4]; 1 μM,93.9 ± 0.8%
same,% Inhibition of E1-STS activity in MCF-7 cells,[4]; 10 μM,99% and 98.6 ± 0.3%
CC1=C2CCC3c4ccc(OS(N)(=O)=O)cc4CCC3C2CC1 (stereo not shown) [BLE00086],inhibition at 0.1 µM,[1]; 0.1 μM,8%
same,inhibition at 1 µM,[1]; 1 μM,3%
same,inhibition at 10 µM,[1]; 10 μM,14%
C[C@]12CCC3c4ccc(OCc5ccccc5)cc4CCC3C1CC[C@H]2OS(=O)(=O)N(Cc1ccccc1)Cc1ccccc1 (stereo partly shown),melting point,,115 to 116 °C
CC12CCC3c4ccc(OS(N)(=O)=O)cc4CCC3C1CCC2OS(N)(=O)=O (stereo not shown) [BLE99031B],inhibition at 0.1 µM,[1]; 0.1 μM,7%
same,inhibition at 1 µM,[1]; 1 μM,12%
same,inhibition at 10 µM,[1]; 10 μM,32%
CN(C)S(=O)(=O)O[C@H]1CCC2C3CCc4cc(OCc5ccccc5)ccc4C3CC[C@@]21C (stereo partly shown),melting point,,117 to 121 °C
"NS(=O)(=O)Oc1ccc(C(O)(c2ccc(OS(N)(=O)=O)cc2)C2CCCCC2)cc1 [Compound 25, 1-Cyclohexyl-1,1-di-(4-sulphamoyloxyphenyl)methanol]",melting point,,213 to 215 °C (dec.)
same,inhibition at 0.1 µM,"[4]; MCF7, 0.1 μM",< 10%
same,inhibition at 1 µM,"[4]; MCF7, 1 μM",27.4 ± 0.8%
same,inhibition at 10 µM,"[4]; MCF7, 10 μM",75.1 ± 2.8%
"CCCCCN(CCCCC)S(=O)(=O)O[C@H]1CCC2C3CCc4cc(OS(N)(=O)=O)ccc4C3CC[C@@]21C (stereo partly drawn) [BLE99074, 3-O-Sulfamoyl-estra-1,3,5(10)-trien-17β-O—(N,N-dipentyl)sulfamate]",melting point,,105 to 107 °C
same,inhibition at 1 µM,"[2]; 1 μM, -ve % means stimulation",23.7%
"C[C@]12CCC3c4ccc(O)cc4CCC3C1CC[C@H]2OS(=O)(=O)N(Cc1ccccc1)Cc1ccccc1 (stereo partly drawn) [BLE99066, 3-Hydroxyestra-1,3,5(10)-trien-17α-O—(N,N-dibenzyl)sulfamate]",inhibition at 0.1 µM,[1]; 0.1 μM,11%
same,inhibition at 1 µM,[1]; 1 μM,5%
same,inhibition at 10 µM,[1]; 10 μM,27%
same,melting point,,57 to 60 °C
same,inhibition at 0.01 µM,"[2]; 10 nM, -ve % means stimulation",1.4%
same,inhibition at 1 µM,"[2]; 1 μM, -ve % means stimulation",4.5%
CN(C)S(=O)(=O)O[C@@H]1CCC2C3CCc4cc(OCc5ccccc5)ccc4C3CC[C@@]21C (stereo partly shown),melting point,,82 to 86 °C (dec.)
CC1=C2CCC3c4ccc(OS(N)(=O)=O)cc4CCC3C2CC1 (stereo not shown),melting point,,172 to 176 °C
COc1cc2c(cc1OS(N)(=O)=O)CCC1C2CCC2(C)C1CCC2(O)Cc1ccc(C(C)(C)C)cc1 (stereo not shown) [BLE01016],inhibition at 0.1 µM,[1]; 0.1 μM,-14%
same,inhibition at 1 µM,[1]; 1 μM,-10%
same,inhibition at 10 µM,[1]; 10 μM,-3%
"NS(=O)(=O)Oc1ccc(Cc2ccc(O)cc2)cc1 [Compound 19, 4-sulphamoyloxy-4′ hydroxydiphenylmethane]",% Inhibition of E1-STS activity in placental microsomes,[2]; 10 μM,11.7 ± 2.3%
same,% Inhibition of E1-STS activity in placental microsomes,[2]; 25 µM,17.3 ± 2.7%
same,% Inhibition of E1-STS activity in placental microsomes,[2]; 50 µM,22.8 ± 1.4%
same,% Inhibition of E1-STS activity in placental microsomes,[2]; 100 µM,34.3 ± 1.0%
same,% Inhibition of E1-STS activity in MCF-7 cells,[4]; 0.1 μM,<10%
same,% Inhibition of E1-STS activity in MCF-7 cells,[4]; 1 μM,39.3 ± 0.1%
same,% Inhibition of E1-STS activity in MCF-7 cells,[4]; 10 μM,92.4 ± 0.1%
"C[C@]12CCC3c4ccc(O)cc4CCC3C1CC[C@@H]2OS(=O)(=O)N(Cc1ccccc1)Cc1ccccc1 (stereo partly drawn) [BLE99060, 3-Hydroxyestra-1,3,5(10)-trien-17β-O—(N,N-dibenzyl)sulfamate]",melting point,,60 to 63 °C
same,inhibition at 0.01 µM,"[2]; 10 nM, -ve % means stimulation",-3.2%
same,inhibition at 1 µM,"[2]; 1 μM, -ve % means stimulation",1.36%
"CC(=O)NS(=O)(=O)O[C@H]1CCC2C3CCc4cc(OS(N)(=O)=O)ccc4C3CC[C@@]21C (stereo partly drawn) [BLE99065, 3-O-Sulfamoyl-estra-1,3,5(10)-trien-17β-O-(N-acetyl)sulfamate]",inhibition at 0.1 µM,[1]; 0.1 μM,7%
same,inhibition at 1 µM,[1]; 1 μM,5%
same,inhibition at 10 µM,[1]; 10 μM,23%
same,melting point,,76 to 80 °C (dec.)
same,inhibition at 0.01 µM,"[2]; 10 nM, -ve % means stimulation",9.8%
same,inhibition at 1 µM,"[2]; 1 μM, -ve % means stimulation",91%
C[C@]12CCC3c4ccc(OCc5ccccc5)cc4CCC3C1CC[C@@H]2OS(N)(=O)=O (stereo partly shown),melting point,,108 to 109 °C
"CC(=O)NS(=O)(=O)O[C@H]1CCC2C3CCc4cc(O)ccc4C3CC[C@@]21C (stereo partly drawn) [BLE99058, 3-Hydroxyestra-1,3,5(10)-trien-17β-O-(N-acetyl)sulfamate]",melting point,,130 to 134 °C (dec.)
same,inhibition at 0.01 µM,"[2]; 10 nM, -ve % means stimulation",0.9%
same,inhibition at 1 µM,"[2]; 1 μM, -ve % means stimulation",7.8%
